From US6903083B2, “Stabilized hydroxyvitamin D” (Bone Care International, Inc., priority 2000, dated 2005)
Each block holds one compound with its values, some of them ahead of it.

How the values were obtained:
Type in all cases: physicochemical
[1] = Stability testing of 1α,24(S)-dihydroxyvitamin D2 containing >0.5% residual solvents, 60° C. for 48 hours, HPLC (Example 9); settings: capped vial
Experimental: Approximately 1 mg of 1α,24(S)-dihydroxyvitamin D2 containing >0.5% residual solvents (non-SHVD) was placed in a capped vial and heated at 60° C. for 48 hours. The contents of the vial were dissolved in ethanol to produce a 1 mg/mL solution. The solution (10 μL) was analyzed by the following HPLC conditions: a YMC Pack Pro C18 column (4.6×150 mm, 5 μm) with a mobile phase of acetonitrile: water (50:50) at a flow rate of 1.0 mL/min.

[2] = Storage stability testing of SHVD2, long-term storage at −70° C., HPLC and UV
Experimental: (§1) The stability of samples from four lots of SHVD2 was examined at 6-month intervals during long-term storage at −70° C. All lots were stored in the container-closure system selected as packaging for the drug substance. Stability was assessed by examining samples for changes in (1) weight percent 1α-OH-D2 content, (2) percent related substances content, and (3) impurity profile, using HPLC. In addition, all lots were examined for changes in UV spectrum by UV spectrophotometry.

[3] = Stability testing SHVD2 v. commercially available 1α-OH-D2, oven at about 60° C., HPLC (Example 7); settings: solid in test tube, present-tense example
Experimental: Approximately 1 mg of SHVD2 or commercial 1α-hydroxyvitamin D2 is placed in each of 2 (12×75 mm) test tubes. One test tube from each of the two preparations is placed in an oven at about 60° C. For analysis, the contents in each test tube are dissolved in ethanol to produce a 1 mg/mL solution. Each solution (10 μL) is analyzed by the following HPLC conditions: a YMC Pack C8 column (4.6×250 mm, 5 μm) with a mobile phase of acetonitrile: methanol: water (60:20:20) at a flow rate of 1.0 mL/min.

[4] = Stability testing SHVD2 v. non-SHVD2, oven at about 60° C., HPLC (Example 6); settings: 0 to 48 hours, solid in test tube, present-tense example
Experimental: Approximately 1 mg of SHVD2 or non-stabilized 1α-hydroxyvitamin D2 (non-SHVD2) is placed in each of 9 (12×75 mm) test tubes. The test tubes are placed in an oven at about 60° C. One test tube of each of the two vitamin D2 preparations is removed at 0, 3, 6, 9, 12, 18, 24, 36 and 48 hours of incubation. The contents in each test tube are dissolved in ethanol to produce a 1 mg/mL solution. Each solution (10 μL) is analyzed by the following HPCL conditions: a YMC Pack C8 column (4.6×250 mm, 5 μm) with a mobile phase of acetonitrile: methanol: water (60:20:20) at a flow rate of 1.0 mL/min.

[5] = Stability testing SHVD2 v. non-SHVD2 (ethanol vapour exposed), 60° C. for 48 hours, HPLC (Example 8); settings: non-SHVD2 made by exposure to ethanol vapors
Experimental: Approximately 1 mg of stabilized 1α-hydroxyvitamin D2 (doxercalciferol) (SHVD2) was placed in each of two test tubes (12×75 mm). One sample was placed in a dessicator containing an atmosphere of ethanol vapors to increase the residual solvent content of the material to form non-stabilized doxercalciferol (non-SHVD2). The material in the dessicator was heated at 60° C. for 48 hours. The other sample was not subjected to the ethanol atmosphere, thereby retaining its stabilized form, but was heated at 60° C. for 48 hours. The contents in each test tube were dissolved in ethanol to produce a 1 mg/mL solution. Each solution (10 μL) was analyzed by the following HPLC conditions: a YMC Pack C8 column (4.6×250 mm, 5 μm) with a mobile phase of acetonitrile: methanol: water (60:20:20) at a flow rate of 1.0 mL/min.

[6] = Storage stability testing of stabilized 24-hydroxyvitamin D2, long-term storage at −70° C., HPLC and UV (Example 11); settings: present-tense example
Experimental: as §1, with “stabilized 24-Hydroxyvitamin D2 is” for “SHVD2 was”, “are” for “were”, “is” for “was”, “24-OH-D2” for “1α-OH-D2”

SMILES: C=C1/C(=C\C=C2/CCC[C@]3(C)[C@@H]([C@H](C)/C=C/[C@@](C)(O)C(C)C)CC[C@@H]23)C[C@@H](O)C[C@@H]1O [1α,24(S)-dihydroxyvitamin D2]
appearance of a new compound by HPLC after heating [1]: a compound with a relative retention time of approximately 0.85 compared with standard 1α,24(S)-dihydroxyvitamin D2 was observed

impurity profile chromatography, new peaks relative to baseline ([2]; 6 or 12 months): no new peaks
weight % 1α-OH-D2 content ([2]; all four lots, all time points (baseline, 6, 12 months), HPLC): > 98.0%
percent related substances ([2]; baseline to 12 months, HPLC): < 2.0%
differences in mean weight % 1α-OH-D2 content between baseline and 6 or 12 months ([2]; four lots): no significant differences
SMILES: C=C1/C(=C\C=C2/CCC[C@]3(C)[C@@H]([C@H](C)/C=C/[C@H](C)C(C)C)CC[C@@H]23)C[C@@H](O)C[C@@H]1O [SHVD2, 1α-hydroxyvitamin D2]

SMILES: C=C1/C(=C\C=C2/CCC[C@]3(C)[C@@H]([C@H](C)/C=C/[C@H](C)C(C)C)CC[C@@H]23)C[C@@H](O)C[C@@H]1O [commercial 1α-hydroxyvitamin D2, 1α-hydroxyvitamin D2]
rate of appearance of the peak with relative retention time of approximately 0.9 compared with the 1α-hydroxyvitamin D2 peak [3]: greater with the commercial 1α-hydroxyvitamin D2 than with SHVD2

SMILES: C=C1/C(=C\C=C2/CCC[C@]3(C)[C@@H]([C@H](C)/C=C/[C@H](C)C(C)C)CC[C@@H]23)C[C@@H](O)C[C@@H]1O [non-SHVD2, 1α-hydroxyvitamin D2]
rate of appearance of the peak with relative retention time of approximately 0.9 compared with the 1α-hydroxyvitamin D2 peak [4]: greater with the non-SHVD2 than with SHVD2
rate of appearance of the peak with relative retention time of approximately 0.9 compared with the doxercalciferol peak [5]: greater with the non-SHVD2 material than with SHVD2

impurity profile chromatography, new peaks relative to baseline ([6]; 6 or 12 months): no new peaks
weight % 24-OH-D2 content ([6]; all four lots, all time points): > 98.0%
percent related substances ([6]; baseline to 12 months): < 2.0%
differences in mean weight % 24-OH-D2 content between baseline and 6 or 12 months [6]: No significant differences
SMILES: C=C1CC[C@H](O)C/C1=C/C=C1\CCC[C@]2(C)[C@@H]([C@H](C)/C=C/C(C)(O)C(C)C)CC[C@@H]12 (stereo partly drawn) [stabilized 24-Hydroxyvitamin D2, 24-hydroxyvitamin D2]
